# Tests used:
# Assay in all cases: relative viability (nuclei count vs DMSO), 5 days (fraction); higher = more cells survive
# 201T = system: 201T
# Outline: (§1)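 One day after seeding in 1536-well plates, lung cancer cell lines were dosed by pin tool. Dosing was either single-drug or a fixed anchor-drug dose plus five library-drug doses (not always all listed) in √10 steps. After 5 days, nuclei were stained in one fix-and-stain step and counted on 4× images, and relative viability is the nuclei count of treated wells over that of vehicle wells, given as the median of duplicate plates.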
# BEN = system: BEN
# Outline: as §1
# EPLC-272H = system: EPLC-272H
# Outline: as §1
# HCC-15 = system: HCC-15
# Outline: as §1
# HCC-78 = system: HCC-78
# Outline: as §1
# LCLC-97TM1 = system: LCLC-97TM1
# Outline: as §1
# LU99A = system: LU99A
# Outline: as §1
# NCI-H1355 = system: NCI-H1355
# Outline: as §1
# NCI-H1395 = system: NCI-H1395
# Outline: as §1
# NCI-H2009 = system: NCI-H2009
# Outline: as §1
# NCI-H2085 = system: NCI-H2085
# Outline: as §1
# NCI-H2126 = system: NCI-H2126
# Outline: as §1
# NCI-H2228 = system: NCI-H2228
# Outline: as §1
# NCI-H2342 = system: NCI-H2342
# Outline: as §1
# NCI-H23 = system: NCI-H23
# Outline: as §1
# NCI-H2405 = system: NCI-H2405
# Outline: as §1
# NCI-H322M = system: NCI-H322M
# Outline: as §1
# NCI-H460 = system: NCI-H460
# Outline: as §1
# NCI-H647 = system: NCI-H647
# Outline: as §1
# NCI-H650 = system: NCI-H650
# Outline: as §1
# NCI-H661 = system: NCI-H661
# Outline: as §1
# NCI-H838 = system: NCI-H838
# Outline: as §1
# PC-14 = system: PC-14
# Outline: as §1
compound,measurement,setting,value
Cc1csc(=NC2CCCCC2)n1/N=C/c1ccc(O)c(O)c1O [MIM1] + Cc1nc(Nc2ncc(C(=O)Nc3c(C)cccc3Cl)s2)cc(N2CCN(CCO)CC2)n1 [Dasatinib] (partner 0.075 µM),relative viability,201T; first compound 0.2 µM,0.612
same,relative viability,201T; first compound 0.6325 µM,0.614
same,relative viability,201T; first compound 2 µM,0.598
same,relative viability,201T; first compound 6.325 µM,0.422
same,relative viability,201T; first compound 20 µM,0.445
same,relative viability,BEN; first compound 0.2 µM,0.304
same,relative viability,BEN; first compound 0.6325 µM,0.308
same,relative viability,BEN; first compound 2 µM,0.348
same,relative viability,BEN; first compound 6.325 µM,0.378
same,relative viability,BEN; first compound 20 µM,0.158
same,relative viability,EPLC-272H; first compound 0.2 µM,0.406
same,relative viability,EPLC-272H; first compound 0.6325 µM,0.305
same,relative viability,EPLC-272H; first compound 2 µM,0.328
same,relative viability,EPLC-272H; first compound 6.325 µM,0.312
same,relative viability,EPLC-272H; first compound 20 µM,0.0989
same,relative viability,HCC-15; first compound 0.2 µM,0.635
same,relative viability,HCC-15; first compound 2 µM,0.57
same,relative viability,HCC-15; first compound 6.325 µM,0.359
same,relative viability,HCC-15; first compound 20 µM,0.101
same,relative viability,HCC-78; first compound 0.2 µM,0.467
same,relative viability,HCC-78; first compound 0.6325 µM,0.287
same,relative viability,HCC-78; first compound 2 µM,0.435
same,relative viability,HCC-78; first compound 6.325 µM,0.344
same,relative viability,HCC-78; first compound 20 µM,0.487
same,relative viability,LCLC-97TM1; first compound 0.2 µM,0.866
same,relative viability,LCLC-97TM1; first compound 0.6325 µM,0.709
same,relative viability,LCLC-97TM1; first compound 2 µM,1.02
same,relative viability,LCLC-97TM1; first compound 6.325 µM,0.552
same,relative viability,LCLC-97TM1; first compound 20 µM,0.431
same,relative viability,LU99A; first compound 0.2 µM,0.752
same,relative viability,LU99A; first compound 0.6325 µM,0.54
same,relative viability,LU99A; first compound 2 µM,0.48
same,relative viability,LU99A; first compound 6.325 µM,0.37
same,relative viability,LU99A; first compound 20 µM,0.21
same,relative viability,NCI-H1355; first compound 0.2 µM,0.746
same,relative viability,NCI-H1355; first compound 0.6325 µM,0.682
same,relative viability,NCI-H1355; first compound 2 µM,0.698
same,relative viability,NCI-H1355; first compound 6.325 µM,0.655
same,relative viability,NCI-H1355; first compound 20 µM,0.391
same,relative viability,NCI-H1395; first compound 0.2 µM,0.504
same,relative viability,NCI-H1395; first compound 0.6325 µM,0.465
same,relative viability,NCI-H1395; first compound 2 µM,0.381
same,relative viability,NCI-H1395; first compound 6.325 µM,0.443
same,relative viability,NCI-H1395; first compound 20 µM,0.303
same,relative viability,NCI-H2009; first compound 0.2 µM,0.303
same,relative viability,NCI-H2009; first compound 0.6325 µM,0.327
same,relative viability,NCI-H2009; first compound 2 µM,0.293
same,relative viability,NCI-H2009; first compound 6.325 µM,0.204
same,relative viability,NCI-H2009; first compound 20 µM,0.123
same,relative viability,NCI-H2085; first compound 0.2 µM,0.323
same,relative viability,NCI-H2085; first compound 0.6325 µM,0.251
same,relative viability,NCI-H2085; first compound 2 µM,0.261
same,relative viability,NCI-H2085; first compound 6.325 µM,0.241
same,relative viability,NCI-H2085; first compound 20 µM,0.253
same,relative viability,NCI-H2126; first compound 0.2 µM,0.679
same,relative viability,NCI-H2126; first compound 0.6325 µM,0.582
same,relative viability,NCI-H2126; first compound 2 µM,0.583
same,relative viability,NCI-H2126; first compound 6.325 µM,0.471
same,relative viability,NCI-H2126; first compound 20 µM,0.287
same,relative viability,NCI-H2228; first compound 0.2 µM,0.505
same,relative viability,NCI-H2228; first compound 0.6325 µM,0.524
same,relative viability,NCI-H2228; first compound 2 µM,0.66
same,relative viability,NCI-H2228; first compound 6.325 µM,0.205
same,relative viability,NCI-H2228; first compound 20 µM,0.0988
same,relative viability,NCI-H2342; first compound 0.2 µM,0.319
same,relative viability,NCI-H2342; first compound 0.6325 µM,0.316
same,relative viability,NCI-H2342; first compound 2 µM,0.331
same,relative viability,NCI-H2342; first compound 6.325 µM,0.299
same,relative viability,NCI-H2342; first compound 20 µM,0.418
same,relative viability,NCI-H23; first compound 0.2 µM,0.826
same,relative viability,NCI-H23; first compound 2 µM,0.684
same,relative viability,NCI-H23; first compound 6.325 µM,0.471
same,relative viability,NCI-H23; first compound 20 µM,0.246
same,relative viability,NCI-H2405; first compound 0.2 µM,0.21
same,relative viability,NCI-H2405; first compound 0.6325 µM,0.225
same,relative viability,NCI-H2405; first compound 2 µM,0.209
same,relative viability,NCI-H2405; first compound 6.325 µM,0.205
same,relative viability,NCI-H2405; first compound 20 µM,0.48
same,relative viability,NCI-H322M; first compound 0.2 µM,0.265
same,relative viability,NCI-H322M; first compound 0.6325 µM,0.245
same,relative viability,NCI-H322M; first compound 2 µM,0.249
same,relative viability,NCI-H322M; first compound 6.325 µM,0.27
same,relative viability,NCI-H322M; first compound 20 µM,0.38
same,relative viability,NCI-H460; first compound 0.2 µM,0.508
same,relative viability,NCI-H460; first compound 0.6325 µM,0.42
same,relative viability,NCI-H460; first compound 2 µM,0.467
same,relative viability,NCI-H460; first compound 6.325 µM,0.327
same,relative viability,NCI-H460; first compound 20 µM,0.044
same,relative viability,NCI-H647; first compound 0.2 µM,0.232
same,relative viability,NCI-H647; first compound 0.6325 µM,0.225
same,relative viability,NCI-H647; first compound 6.325 µM,0.145
same,relative viability,NCI-H647; first compound 20 µM,0.0584
same,relative viability,NCI-H650; first compound 0.2 µM,0.496
same,relative viability,NCI-H650; first compound 0.6325 µM,0.435
same,relative viability,NCI-H650; first compound 2 µM,0.459
same,relative viability,NCI-H650; first compound 6.325 µM,0.416
same,relative viability,NCI-H650; first compound 20 µM,0.301
same,relative viability,NCI-H661; first compound 0.2 µM,0.997
same,relative viability,NCI-H661; first compound 0.6325 µM,0.866
same,relative viability,NCI-H661; first compound 2 µM,0.87
same,relative viability,NCI-H661; first compound 6.325 µM,0.406
same,relative viability,NCI-H661; first compound 20 µM,0.224
same,relative viability,NCI-H838; first compound 0.2 µM,0.326
same,relative viability,NCI-H838; first compound 0.6325 µM,0.298
same,relative viability,NCI-H838; first compound 6.325 µM,0.314
same,relative viability,NCI-H838; first compound 20 µM,0.218
same,relative viability,PC-14; first compound 0.2 µM,0.301
same,relative viability,PC-14; first compound 0.6325 µM,0.27
same,relative viability,PC-14; first compound 2 µM,0.171
same,relative viability,PC-14; first compound 6.325 µM,0.233
same,relative viability,PC-14; first compound 20 µM,0.0786

# — the supplement of paper PMC10307832
